Columns and labels:
bulrush [1] = assay: Test Example 1: herbicidal efficacy on rice paddy weeds pre-emergence; type: in vivo, Scirpus juncoides; conditions: 21 days
false pimpernel [2] = assay: as above; type: in vivo, Lindernia pyxidaria; conditions: 21 days
[3] = system: paddy rice plant (cultivar: Nihonbare); assay: Test Example 3: phytotoxicity test for transplanted paddy rice plant; type: in vivo; conditions: 21 days after treatment; for Phytotoxicity to paddy rice: transplanted rice
Summary of the method: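 Clay loam soil was placed in a 75 cm^2 plastic pot and flooded to a water depth of 5 cm. Two Nihonbare paddy rice plants at the two-leaf stage were transplanted 1 cm deep and grown in a hot house. After treatment, pots stayed in the hot house for 21 days, and phytotoxicity was then graded against an untreated control.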

bulrush [4] = assay: Test Example 2: herbicidal efficacy on rice paddy weeds post-emergence; type: in vivo, Scirpus juncoides; conditions: 21 days after treatment
false pimpernel [5] = assay: as above; type: in vivo, Lindernia pyxidaria; conditions: 21 days after treatment
barnyard glass = assay: as above; type: in vivo, Echinochloa crus-galli; conditions: 21 days after treatment
Excerpt: The standard of judgment for herbicidal efficacy (degree of growth inhibition) and phytotoxicity 4 . . . 90%-100% of herbicidal efficacy or phytotoxicity 3 . . . 70%-89% of herbicidal efficacy or phytotoxicity 2 . . . 40%-69% of herbicidal efficacy or phytotoxicity 1 . . . 1%-39% of herbicidal efficacy or phytotoxicity 0 . . . 0% of herbicidal efficacy or phytotoxicity
A 75 cm^2 plastic pot was filled with soil (clay loam) and planted seeds of barnyard glass and bulrush which is a rice paddy weed. After covering the top with 75 cm^3 soil mixed with seeds of false pimpernel, the pot was filled with water so that the soil submerged under 5 cm depth of water and kept in a hot house. […] The pot was kept in a hot house for 21 days after the treatment and the herbicidal efficacy was investigated and evaluated according to the standard in Test Example 1 by comparing with the untreated control. “-” in the table represents test not done.

[6] = dosage 1000 g/ha, treated 5 days after transplantation
[7] = dosage 1000 g/ha, post-emergence, one leaf stage
[8] = dosage 300 g/ha, post-emergence, one leaf stage
[9] = dosage 1000 g/ha active ingredient, vs untreated control
[10] = dosage 1000 g/ha active ingredient, post-emergence treatment at one leaf stage, vs untreated control

SMILES | Bulrush pre (herbicidal efficacy grade) (bulrush [1]; dosage 1000 g/ha) | False pimpernel pre (herbicidal efficacy grade) (false pimpernel [2]; dosage 1000 g/ha) | Phytotoxicity to paddy rice [3, 6] | Bulrush post (herbicidal efficacy grade) (bulrush [4]; [7]) | False pimpernel post (herbicidal efficacy grade) (false pimpernel [5]; [7]) | Burnyard grass post (herbicidal efficacy grade) (barnyard glass; [7]) | Bulrush pre (herbicidal efficacy grade) (bulrush [1]; dosage 300 g/ha) | False pimpernel pre (herbicidal efficacy grade) (false pimpernel [2]; dosage 300 g/ha) | Phytotoxicity to paddy rice ([3]; dosage 300 g/ha) | Bulrush post (herbicidal efficacy grade) (bulrush [4]; [8]) | False pimpernel post (herbicidal efficacy grade) (false pimpernel [5]; [8]) | Burnyard grass post (herbicidal efficacy grade) (barnyard glass; [8]) | further results
CC(C)COC(=O)N(c1ccccc1CN1CC2(CCCC2C)OC1=O)S(=O)(=O)C(F)(F)F (stereo not drawn) [Compound 1-161] | 4 (90%-100% of herbicidal efficacy or phytotoxicity) | 4 (90%-100% of herbicidal efficacy or phytotoxicity) | 1 (1%-39% of herbicidal efficacy or phytotoxicity) | 4 (90%-100% of herbicidal efficacy or phytotoxicity) | 4 (90%-100% of herbicidal efficacy or phytotoxicity) | 4 (90%-100% of herbicidal efficacy or phytotoxicity) | – | – | – | – | – | – | –
O=C1OCCN1Cc1ccccc1NS(=O)(=O)C(F)(F)F [Compound 1-1] | 4 (90%-100% of herbicidal efficacy or phytotoxicity) | 4 (90%-100% of herbicidal efficacy or phytotoxicity) | 1 (1%-39% of herbicidal efficacy or phytotoxicity) | 4 (90%-100% of herbicidal efficacy or phytotoxicity) | 4 (90%-100% of herbicidal efficacy or phytotoxicity) | 4 (90%-100% of herbicidal efficacy or phytotoxicity) | – | – | – | – | – | – | –
CC(C)CC1(C)CN(Cc2ccccc2NS(=O)(=O)C(F)(F)F)C(=O)O1 (racemic) [Compound 1-103] | – | – | – | – | – | – | 4 (90%-100% of herbicidal efficacy or phytotoxicity) | 4 (90%-100% of herbicidal efficacy or phytotoxicity) | 2 (40%-69% of herbicidal efficacy or phytotoxicity) | 4 (90%-100% of herbicidal efficacy or phytotoxicity) | 4 (90%-100% of herbicidal efficacy or phytotoxicity) | 4 (90%-100% of herbicidal efficacy or phytotoxicity) | –
CC[C@H]1CN(Cc2ccccc2NS(=O)(=O)C(F)(F)F)C(=O)O1 [Compound 1-55] | 4 (90%-100% of herbicidal efficacy or phytotoxicity) | 4 (90%-100% of herbicidal efficacy or phytotoxicity) | 1 (1%-39% of herbicidal efficacy or phytotoxicity) | 4 (90%-100% of herbicidal efficacy or phytotoxicity) | 4 (90%-100% of herbicidal efficacy or phytotoxicity) | 4 (90%-100% of herbicidal efficacy or phytotoxicity) | – | – | – | – | – | – | –
COCOc1cccc(CN2CC(C)(C)OC2=O)c1NS(=O)(=O)C(F)(F)F [1-212] | – | – | – | – | – | – | – | – | – | – | – | – | Bulrush pre (herbicidal efficacy grade) (bulrush [1]; [9]): 4 (90%-100% of herbicidal efficacy or phytotoxicity); False pimpernel pre (herbicidal efficacy grade) (false pimpernel [2]; [9]): 1 (1%-39% of herbicidal efficacy or phytotoxicity); Phytotoxicity to paddy rice (grade) ([3]; dosage 1000 g/ha active ingredient, treated 5 days after transplantation, vs untreated control): 3 (70%-89% of herbicidal efficacy or phytotoxicity); Bulrush post (herbicidal efficacy grade) (bulrush [4]; [10]): 2 (40%-69% of herbicidal efficacy or phytotoxicity); False pimpernel post (herbicidal efficacy grade) (false pimpernel [5]; [10]): 2 (40%-69% of herbicidal efficacy or phytotoxicity); Burnyard grass post (herbicidal efficacy grade) (barnyard glass; [10]): 3 (70%-89% of herbicidal efficacy or phytotoxicity)
COCC1(C)CN(Cc2ccccc2N(C(=O)OCC(C)C)S(=O)(=O)C(F)(F)F)C(=O)O1 (stereo not drawn) [Compound 1-138] | 4 (90%-100% of herbicidal efficacy or phytotoxicity) | 4 (90%-100% of herbicidal efficacy or phytotoxicity) | 2 (40%-69% of herbicidal efficacy or phytotoxicity) | 4 (90%-100% of herbicidal efficacy or phytotoxicity) | 4 (90%-100% of herbicidal efficacy or phytotoxicity) | 4 (90%-100% of herbicidal efficacy or phytotoxicity) | – | – | – | – | – | – | –
CC1(COc2ccccc2)CN(Cc2ccccc2NS(=O)(=O)C(F)(F)F)C(=O)O1 (stereo not drawn) [Compound 1-155] | – | – | – | – | – | – | 4 (90%-100% of herbicidal efficacy or phytotoxicity) | 4 (90%-100% of herbicidal efficacy or phytotoxicity) | 1 (1%-39% of herbicidal efficacy or phytotoxicity) | 4 (90%-100% of herbicidal efficacy or phytotoxicity) | 4 (90%-100% of herbicidal efficacy or phytotoxicity) | 1 (1%-39% of herbicidal efficacy or phytotoxicity) | –
CCC1(C)CN(Cc2ccccc2N(C(=O)OC)S(=O)(=O)C(F)(F)F)C(=S)O1 (stereo not drawn) [Compound 1-182] | 4 (90%-100% of herbicidal efficacy or phytotoxicity) | 4 (90%-100% of herbicidal efficacy or phytotoxicity) | 1 (1%-39% of herbicidal efficacy or phytotoxicity) | 4 (90%-100% of herbicidal efficacy or phytotoxicity) | 4 (90%-100% of herbicidal efficacy or phytotoxicity) | 4 (90%-100% of herbicidal efficacy or phytotoxicity) | – | – | – | – | – | – | –
CC(C)(C)C1(C)CN(Cc2ccccc2NS(=O)(=O)C(F)(F)F)C(=O)O1 (stereo not drawn) [Compound 1-69] | – | – | – | – | – | – | 4 (90%-100% of herbicidal efficacy or phytotoxicity) | 4 (90%-100% of herbicidal efficacy or phytotoxicity) | 1 (1%-39% of herbicidal efficacy or phytotoxicity) | 4 (90%-100% of herbicidal efficacy or phytotoxicity) | 4 (90%-100% of herbicidal efficacy or phytotoxicity) | 3 (70%-89% of herbicidal efficacy or phytotoxicity) | –
CC1(c2ccccc2)CN(Cc2ccccc2NS(=O)(=O)C(F)(F)F)C(=O)O1 (stereo not drawn) [Compound 1-140] | – | – | – | – | – | – | 4 (90%-100% of herbicidal efficacy or phytotoxicity) | 4 (90%-100% of herbicidal efficacy or phytotoxicity) | 1 (1%-39% of herbicidal efficacy or phytotoxicity) | 4 (90%-100% of herbicidal efficacy or phytotoxicity) | 4 (90%-100% of herbicidal efficacy or phytotoxicity) | 2 (40%-69% of herbicidal efficacy or phytotoxicity) | –
CCCCC1(C)CN(Cc2ccccc2N(C(=O)OCC(C)C)S(=O)(=O)C(F)(F)F)C(=O)O1 (racemic) [Compound 1-123] | 4 (90%-100% of herbicidal efficacy or phytotoxicity) | 4 (90%-100% of herbicidal efficacy or phytotoxicity) | 1 (1%-39% of herbicidal efficacy or phytotoxicity) | 4 (90%-100% of herbicidal efficacy or phytotoxicity) | 4 (90%-100% of herbicidal efficacy or phytotoxicity) | 4 (90%-100% of herbicidal efficacy or phytotoxicity) | – | – | – | – | – | – | –
CC(C)COC(=O)N(c1ccccc1CN1C(=O)OC(C)(C)C1(C)C)S(=O)(=O)C(F)(F)F [Compound 1-74] | 4 (90%-100% of herbicidal efficacy or phytotoxicity) | 4 (90%-100% of herbicidal efficacy or phytotoxicity) | 4 (90%-100% of herbicidal efficacy or phytotoxicity) | 4 (90%-100% of herbicidal efficacy or phytotoxicity) | 4 (90%-100% of herbicidal efficacy or phytotoxicity) | 4 (90%-100% of herbicidal efficacy or phytotoxicity) | – | – | – | – | – | – | –

Reference: patent US20080274892A1, “Novel Haloalkylsulfonanilide Derivative, Herbicide, and Method of Use Thereof” (priority 2005, published 2008)
